pIC50: −log10 of the molar value.
Columns and labels:
[1] = MTT cytotoxicity assay, MCF-10A; conditions: human, MCF-10A normal breast cells
Experimental: (§1) The antiproliferative activity and cytotoxicity of DHA-5-methylisatin hybrids 6a–c and 7a–m against MCF-7, MDA-MB-231, MCF-7/ADR, and MDA-MB-231/ADR (Purchased from Procell) breast cancer cell lines as well as MCF-10A were assessed by 3-(4,5-dimethylthiazol-2-yl)-2,5-diphenyltetrazolium bromide (MTT) assay.
(§2) MCF-7, MDA-MB-231, MCF-7/ADR, and MDA-MB-231/ADR breast cancer cell lines (2 × 10^3) were plated in each well of a 96-well plate and were allowed to adhere and spread for 24 h. The dihydroartemisinin-5-methylisatin hybrids 6a–e and 7a–m were added to a final concentration of 100 µM, and the cells were cultured for 24 h at 37 °C. 3-(4,5-dimethyl-2-thiazolyl)-2,5-diphenyltetrazolium bromide (MTT) solution (10 µL) was added to each well, and the cultures were incubated for an additional 4 h. A further 100 µL of MTT solution was added and incubation continued overnight. The absorbance at 540 nm was determined in each well with a 96-well plate reader. The growth of the treated cells was compared with that of untreated cells.

[2] = test system: MDA-MB-231 breast cancer cell line; test: MTT antiproliferative assay, MDA-MB-231; type: cell-based; conditions: for pIC50: Homo sapiens, MDA-MB-231, MTT assay
Experimental: as §1, §2

[3] = test system: MCF-7 breast cancer cell line; test: MTT antiproliferative assay, MCF-7; type: cell-based; conditions: for pIC50: Homo sapiens, MCF7, MCF-7, MTT assay
Experimental: as §1, §2

[4] = test system: MCF-7/ADR breast cancer cell line; test: MTT antiproliferative assay, MCF-7/ADR; type: cell-based; conditions: Homo sapiens, NCI/ADR-RES, MCF-7/ADR (drug-resistant)
Experimental: as §1, §2

[5] = test system: MDA-MB-231/ADR breast cancer cell line; test: MTT antiproliferative assay, MDA-MB-231/ADR; type: cell-based; conditions: Homo sapiens, MDA-MB-231/ADR (drug-resistant)
Experimental: as §1, §2

| Structure (SMILES) | IC50 at 24 h [1] [µM] | SI2: selectivity index IC50(MCF-10A)/IC50(MDA-MB-231) [2] | pIC50 [3] | SI1: selectivity index IC50(MCF-10A)/IC50(MCF-7) [3] | pIC50 [4] | pIC50 [5] | pIC50 [2] |
| --- | --- | --- | --- | --- | --- | --- | --- |
| COc1cccc2c1C(=O)c1c(O)c3c(c(O)c1C2=O)C[C@@](O)(C(=O)CO)C[C@@H]3O[C@H]1C[C@H](N)[C@H](O)[C@H](C)O1 [ADR, Adriamycin, reference compound] | 68.8 | 14.76 | 4.72 | 3.64 | < 4.00 | < 4.00 | – |
| C[C@@H]1CC[C@H]2[C@@H](C)C(=O)O[C@@H]3O[C@@]4(C)CC[C@@H]1[C@]32OO4 [ART, Artemisinin] | > 100 | >1.38 | – | >1.14 | < 4.00 | < 4.00 | – |
| C[C@H]1[C@@H](O)O[C@@H]2O[C@@]3(C)CC[C@H]4[C@H](C)CC[C@@H]1[C@@]24OO3 [DHA, Dihydroartemisinin] | > 100 | >1.43 | – | >1.36 | 4.10 | – | – |
| Cc1ccc2c(c1)C(=O)C(=O)N2CCOC1O[C@@H]2O[C@@]3(C)CC[C@H]4[C@H](C)CC[C@@H]([C@H]1C)[C@@]24OO3 (stereo partly drawn) [Hybrid 6a, 5-Methyl-1-(2-(((3R,5aS,6R,8aS,9R,12R,12aR)-3,6,9-trimethyldecahydro-12H-3,12-epoxy[1,2]dioxepino[4,3-i]isochromen-10-yl)oxy)ethyl)indoline-2,3-dione] | > 100 | >3.43 | 4.50 | >3.15 | 4.60 | 4.57 | 4.54 |
| Cc1ccc2c(c1)C(=O)C(=O)N2CCCOC1O[C@@H]2O[C@@]3(C)CC[C@H]4[C@H](C)CC[C@@H]([C@H]1C)[C@@]24OO3 (stereo partly drawn) [Hybrid 6b, 5-Methyl-1-(3-(((3R,5aS,6R,8aS,9R,12R,12aR)-3,6,9-trimethyldecahydro-12H-3,12-epoxy[1,2]dioxepino[4,3-i]isochromen-10-yl)oxy)propyl)indoline-2,3-dione] | > 100 | – | < 4.00 | – | 4.06 | < 4.00 | < 4.00 |
| Cc1ccc2c(c1)C(=O)C(=O)N2CCCCOC1O[C@@H]2O[C@@]3(C)CC[C@H]4[C@H](C)CC[C@@H]([C@H]1C)[C@@]24OO3 (stereo partly drawn) [Hybrid 6c, 5-Methyl-1-(4-(((3R,5aS,6R,8aS,9R,12R,12aR)-3,6,9-trimethyldecahydro-12H-3,12-epoxy[1,2]dioxepino[4,3-i]isochromen-10-yl)oxy)butyl)indoline-2,3-dione] | > 100 | >2.36 | 4.22 | >1.67 | 4.30 | 4.35 | 4.37 |
| Cc1ccc2c(c1)C(=NO)C(=O)N2CCCOC1O[C@@H]2O[C@@]3(C)CC[C@H]4[C@H](C)CC[C@@H]([C@H]1C)[C@@]24OO3 (stereo partly drawn) [Hybrid 7b, 3-(Hydroxyimino)-5-methyl-1-(3-(((3R,5aS,6R,8aS,9R,12R,12aR)-3,6,9-trimethyldecahydro-12H-3,12-epoxy[1,2]dioxepino[4,3-i]isochromen-10-yl)oxy)propyl)indolin-2-one] | > 100 | >2.34 | 4.52 | >3.30 | 4.54 | 4.44 | 4.37 |
| Cc1ccc2c(c1)C(=NO)C(=O)N2CCCCOC1O[C@@H]2O[C@@]3(C)CC[C@H]4[C@H](C)CC[C@@H]([C@H]1C)[C@@]24OO3 (stereo partly drawn) [Hybrid 7c, 3-(Hydroxyimino)-5-methyl-1-(4-(((3R,5aS,6R,8aS,9R,12R,12aR)-3,6,9-trimethyldecahydro-12H-3,12-epoxy[1,2]dioxepino[4,3-i]isochromen-10-yl)oxy)butyl)indolin-2-one] | > 100 | >3.83 | 4.66 | >4.52 | 4.63 | 4.55 | 4.57 |
| Cc1ccc2c(c1)C(=NNC(N)=O)C(=O)N2CCOC1O[C@@H]2O[C@@]3(C)CC[C@H]4[C@H](C)CC[C@@H]([C@H]1C)[C@@]24OO3 (stereo partly drawn) [Hybrid 7d, 2-(5-Methyl-2-oxo-1-(2-(((3R,5aS,6R,8aS,9R,12R,12aR)-3,6,9-trimethyldecahydro-12H-3,12-epoxy[1,2]dioxepino[4,3-i]isochromen-10-yl)oxy)ethyl)indolin-3-ylidene)hydrazine-1-carboxamide] | > 100 | >5.07 | 4.57 | >3.67 | 4.48 | 4.67 | 4.71 |
| Cc1ccc2c(c1)C(=NNC(N)=O)C(=O)N2CCCCOC1O[C@@H]2O[C@@]3(C)CC[C@H]4[C@H](C)CC[C@@H]([C@H]1C)[C@@]24OO3 (stereo partly drawn) [Hybrid 7e, 2-(5-Methyl-2-oxo-1-(4-(((3R,5aS,6R,8aS,9R,12R,12aR)-3,6,9-trimethyldecahydro-12H-3,12-epoxy[1,2]dioxepino[4,3-i]isochromen-10-yl)oxy)butyl)indolin-3-ylidene)hydrazine-1-carboxamide] | > 100 | >3.20 | 4.41 | >2.56 | 4.38 | 4.46 | 4.51 |
| Cc1ccc2c(c1)C(=NNC(N)=S)C(=O)N2CCCOC1O[C@@H]2O[C@@]3(C)CC[C@H]4[C@H](C)CC[C@@H]([C@H]1C)[C@@]24OO3 (stereo partly drawn) [Hybrid 7f, 2-(5-Methyl-2-oxo-1-(3-(((3R,5aS,6R,8aS,9R,12R,12aR)-3,6,9-trimethyldecahydro-12H-3,12-epoxy[1,2]dioxepino[4,3-i]isochromen-10-yl)oxy)propyl)indolin-3-ylidene)hydrazine-1-carbothioamide] | > 100 | >2.07 | 4.33 | >2.14 | 4.44 | 4.29 | 4.32 |
| Cc1ccc2c(c1)C(=NNC(N)=S)C(=O)N2CCCCOC1O[C@@H]2O[C@@]3(C)CC[C@H]4[C@H](C)CC[C@@H]([C@H]1C)[C@@]24OO3 (stereo partly drawn) [Hybrid 7g, 2-(5-Methyl-2-oxo-1-(4-(((3R,5aS,6R,8aS,9R,12R,12aR)-3,6,9-trimethyldecahydro-12H-3,12-epoxy[1,2]dioxepino[4,3-i]isochromen-10-yl)oxy)butyl)indolin-3-ylidene)hydrazine-1-carbothioamide] | > 100 | >2.84 | 4.54 | >3.46 | 4.52 | 4.39 | 4.45 |
| CCON=C1C(=O)N(CCOC2O[C@@H]3O[C@@]4(C)CC[C@H]5[C@H](C)CC[C@@H]([C@H]2C)[C@@]35OO4)c2ccc(C)cc21 (stereo partly drawn) [Hybrid 7i, 3-(Ethoxyimino)-5-methyl-1-(2-(((3R,5aS,6R,8aS,9R,12R,12aR)-3,6,9-trimethyldecahydro-12H-3,12-epoxy[1,2]dioxepino[4,3-i]isochromen-10-yl)oxy)ethyl)indolin-2-one] | > 100 | >1.42 | 4.16 | >1.44 | 4.21 | 4.14 | 4.15 |

Source: PMC9695041, “The Anti-Breast Cancer Activity of Dihydroartemisinin-5-methylisatin Hybrids Tethered via Different Carbon Spacers” (Molecules, 2022)
